{
  "source": "paper PMC6335420",
  "about": "“The cell cycle regulator GpsB functions as cytosolic adaptor for multiple cell wall enzymes” (Nature Communications, 2019)",
  "molecules": {"B1": {"name": "LmGpsB: L. monocytogenes GpsB (self-interaction) (protein)", "chain": "MTSEQFEYHLTGKEILEKEFKTGLRGYSPEDVDEFLDMVIKDYSTFTQEIEALQAENIRLVQELDNAPLRTSTQPAPTFQAAAQPAGTTNFDILKRLSNLEKHVFGNKLDDNE", "modifications": "left off: T18 fragment of Bordetella pertussis adenylate cyclase, C-terminal, kept"}, "B2": {"name": "LmSepF: L. monocytogenes SepF (protein)", "chain": "MGLSNKFKSFFFLDEEEEYYEEEVAREPEPMQKKTKKEKPNKNRFYAVEEDDAKVVSMQGAQFSSRMVLAEPRVYAEAQELADYLKEYKSVVVNLQRISHDQATRIVDFLSGTVYALGGDIQRVGNNIFLCTPDNVEVDGSISEMLDEQNFM", "modifications": "left off: T25 fragment of Bordetella pertussis adenylate cyclase (vectors pKT25 and p25-N), end not stated, kept", "notes": "L. monocytogenes SepF"}, "B3": {"name": "LmMreC: L. monocytogenes MreC (protein)", "chain": "MPQFFLNKRLIILLISIIVLVALVGFSLRDRENASWPEQFVKDVVGFGENIVAKPTSFISGAVDGVVDLKNTYTENQHLKERLEELAQLESEVADLKKENKDLKESLDITDSIRDYDPLNASVISRNPTNWNDQVEIDKGSSDGVKPDMAVTTPSGLIGKVTTTGAKSATVELLTSSDVKNRVSAKVQGKENAFGIINGYDSDTKLLELKQLPYDMKFKKGQKVVTSGLGGKFPAGIFIGTIEKVETDKMGLSQTAFIKPGADMYDLNHVTVLKRSAEAGTTDDDTTSSDTTGGQ", "modifications": "left off: T25 fragment of Bordetella pertussis adenylate cyclase (vectors pKT25 and p25-N), end not stated, kept", "notes": "L. monocytogenes MreC"}, "B4": {"name": "LmDivIB: L. monocytogenes DivIB (protein)", "chain": "MAENKRVISIENRIPELKKYRKKKLVRHLAILIGIFVILIAITLYFLSPLSKLDKIAVSGNKQLTENEVRKESGLEIGEFVIGISNGKTEDALKKNTLIKDATVSKEGLNDVQINITEFKTIGYQQQDGKYYDVLESGIMLTDQPRQFPIGNDLLFQNFKNGKTLEKMVDQINKLPKDVVSSISEVIYSPTKSDKNHIKLYMNDGNQVSADISTFAEKMQHYPAIVAQLAKGQKGVIDIEVGSYFQSYYQQNAEKKATEEAAKEKKETNE", "modifications": "left off: T25 fragment of Bordetella pertussis adenylate cyclase (vector pKT25), end not stated, kept", "notes": "L. monocytogenes DivIB"}},
  "key": {"SpGpsB1-63": {"target": "T1, SpGpsB1-63 (Streptococcus pneumoniae, UniProt Q8DR57)", "T1 construct": "The SpGpsB1-63 expression construct (pET28SpGpsB1-63) was prepared by PCR amplification of gpsB; His6 (N, cleaved yes); made in house; host or cells: E. coli BL21(DE3)", "assay": "Fluorescence polarisation binding to SpGpsB1-63", "details": "FP, relative to wild-type SpPBP2a23-45", "from_the_text": "(§1) 75 the BsGpsB5-64:BsPBP11-17 complex."}, "BsGpsB1-68": {"target": "T2, BsGpsB1-68 (Bacillus subtilis, UniProt P0CI74)", "T2 construct": "His6 (N, cleaved yes); made in house; host or cells: E. coli BL21(DE3)", "type": "binding", "details": "FP, relative to wild-type peptide", "from_the_text": "as §1"}, "[1]": {"assay": "Circular dichroism of PBP peptides (helicity)", "type": "physicochemical", "procedure": "CD spectra were recorded on a JASCO J-810 spectropolarimeter with a PTC-4235 Peltier temperature controller using 1 mm path length quartz cuvettes. For full wavelength scans a scan speed of 10 nm^−1min^−1 and a response time of 4 s were used, the final spectra were the average of at least four measurements. BsPBP1_1-32 CD spectra were recorded at 4 °C in a buffer of 20 mM sodium phosphate, pH 7.3 at a peptide concentration of 25 μM. Peptide helical contents were estimated from molar ellipticities at 222 nm using the equation helix = [θ]222 nm / (39,500(1–2.57/n))[78] where n is the number of residues in the peptide. LmPBPA1_1-15 CD spectra were analysed at 40 μM in 20 mM sodium phosphate buffer, pH 7.8, for samples containing 0, 40 and 60% trifluoroethanol (TFE). For samples containing 80% TFE, 5 mM sodium phosphate buffer, pH 7.8, was used. The CD spectra of BsGpsB1-68 proteins were measured at a concentration of 4.5 μM in a buffer of 20 mM sodium phosphate (pH 7.8) 150 mM NaCl. For thermal melt experiments, a response time of 8 s and scan rate of 1 °C^−1min^−1 were used. All thermal melts were reversible as CD spectra recorded before and after the melts in the wavelength range 200–240 nm could be superimposed."}, "LmGpsB": {"system": "LmGpsB", "assay": "BACTH (bacterial two-hybrid) interaction with LmGpsB", "type": "cell-based, Listeria monocytogenes", "details": "E. coli BTH101, 30 °C, photographed after 24 and 48 h; LmPBPA1 variants as T25-PBPA1ΔGT-TP", "from_the_text": "The BACTH system[63] was used for analysis of protein:protein interactions. First, LmGpsB was screened against LmPBPA1 (lmo1892) variants to identify residues in LmPBPA1 that are important for binding LmGpsB. To facilitate screening, we used a T25 fragment of Bordetella pertussis adenylate cyclase that had been fused to the N-terminal 91 amino acids of LmPBPA1 to create a T25-LmPBPA1 fusion containing the N-terminal cytoplasmic mini-domain and the transmembrane helix, but lacking lacking the extracellular glycosyltransferase and transpeptidase domains (T25-PBPA1ΔGT-TP) in plasmid pSH437[21]. LmPBPA1 residues that corresponded to the BsGpsB binding motif of BsPBP1 (Thr7, Arg8, Tyr11, Arg12) and additional positively charged amino acids (Lys14, Lys20, Lys21, Lys22, Lys25, Arg26, Lys28 and Arg29) in T25-PBP A1ΔGT-TP were replaced with alanine prior to screening against GpsB-T18. The pSH437 plasmid was mutated by Quikchange mutagenesis using the primer pairs SHW744/SHW754 (T7A, pSH485), SHW746/SHW747 (R8A, pSH486), SHW755/SHW756 (Y11A, pSH487), SHW748/SHW749 (R12A, pSH488), SHW757/SHW758 (K14A, pSH489), SHW759/SHW760 (K20A, pSH490), SHW761/SHW762 (K21A, pSH491), SHW763/SHW764 (K22A, pSH492), SHW765/SHW766 (K25A, pSH493), SHW767/SHW768 (R26A, pSH494), SHW769/SHW770 (K28A, pSH495) and SHW771/SHW772 (R29A, pSH496).\npJR164 and pJR169 were constructed by cloning sepF (primers JR334/JR335 and XbaI/KpnI digestion) into pKT25 and p25-N, respectively. pJR165 and pJR170 were generated by cloning ezrA into pKT25 and p25-N, respectively, using primers JR339/JR340 and XbaI/KpnI for digestion. pJR172 and pJR174 were obtained by cloning zapA into pKT25 and p25-N, respectively, using primers JR337/JR338 and PstI/KpnI. pJR213 was constructed by amplification of divIB with primers JR353/JR354 and cloning into pKT25 using XbaI/KpnI. pJR214 was generated by PCR amplification of divIC with primers JR355/JR356 and cloning into pKT25 using XbaI/KpnI. mreBH was amplified by PCR using oligonucleotides JR368/JR369 and cloned into pKT25 and p25-N using XbaI/KpnI, resulting in pJR233 and pJR236, respectively. pJR242 and pJR243 were obtained by cloning mreC into pKT25 and p25-N, respectively, using primers JR364/JR365 and PstI/KpnI digestion. pbpA2 was cloned into pKT25 using oligonucleotides SHW153/SHW154 and XbaI/KpnI to create pJR250. pbpB1 was amplified with primers SHW157/SHW158 and cloned with SmaI/EcoRI into pKT25, yielding pSH236. pbpB2 was amplified with primers SHW155/SHW156 and cloned into pKT25 after PstI/BamHI digestion, yielding plasmid pSH235. pbpB3 was amplified using primers SHW159/160 and cloned by PstI/BamHI digestion into pKT25, resulting in pSH237. Finally, pSH484 was obtained by removing the N-terminal domain from gpsB present on plasmid pSH226 in a PCR with the primer pair SHW752/SHW753.\nPlasmids encoding the respective genes fused to the N- or C-termini of the T18- or the T25-fragment of the Bordetella pertussis adenylate cyclase were co-transformed into E. coli BTH101. Transformants were selected on LB agar plates containing ampicillin (100 µg^−1mL^−1), kanamycin (50 µg^−1mL^−1), X-Gal (40 µg^−1mL^−1) and IPTG (0.1 mM) and photographs were taken after 24 and 48h growth at 30 °C. The BACTH experiments in Fig. 2b and Supplementary Figure 3C, D were repeated at least twice."}},
  "note": "Entries after “also recorded” stand apart in the source; their conditions may differ. Where two headings read alike, the source gives them in different places. Residues, ends and D or L forms follow the SMILES beside them. *: point of attachment. X1 = CN(C)c1ccc2c(-c3ccc(N4C(=O)CC(*)C4=O)cc3C(=O)[O-])c3ccc(=[N+](C)C)cc-3oc2c1",
  "data": [
    {"molecule": "CC[C@H](C)[C@H](NC(=O)[C@@H]1CCCN1C(=O)[C@H](CSC1CC(=O)N(c2ccc(-c3c4ccc(=[N+](C)C)cc-4oc4cc(N(C)C)ccc34)c(C(=O)[O-])c2)C1=O)NC(=O)[C@@H](NC(=O)[C@H](CCC(N)=O)NC(=O)[C@H](C)NC(=O)[C@H](CC(C)C)NC(=O)[C@H](CCCCN)NC(=O)[C@H](CCCCN)NC(=O)[C@H](CCCNC(=N)N)NC(=O)[C@H](CC(=O)O)NC(=O)[C@H](CO)NC(=O)[C@H](CCCCN)NC(=O)[C@H](CO)NC(=O)[C@H](CCCCN)NC(=O)[C@H](CCCNC(=N)N)NC(=O)[C@H](CC(C)C)NC(=O)[C@@H](NC(=O)[C@@H](NC(=O)[C@H](CO)NC(=O)[C@H](CC(=O)O)NC(=O)[C@H](CO)NC(=O)[C@H](CC(=O)O)NC(=O)[C@H](CCSC)NC(=O)[C@H](CO)NC(=O)CN)[C@@H](C)O)[C@@H](C)CC)C(C)C)C(=O)O", "note": "(stereo partly shown) [TAMRA-SpPBP2a23-45 Arg31LysArg33Lys] (H-GSMDSDSTILRKSKSDRKKLAQVC(X1)PI-OH)", "values": [
      {"measurement": "reduction in affinity for SpGpsB1-63", "setting": "SpGpsB1-63", "value": "> 25", "unit": "fold"}
    ]},
    {"molecule": "CSCC[C@H](NC(=O)[C@H](CO)NC(=O)CN)C(=O)N[C@@H](C)C(=O)N[C@@H](CC(=O)O)C(=O)N[C@@H](CCC(N)=O)C(=O)N[C@@H](Cc1ccccc1)C(=O)N[C@@H](CC(N)=O)C(=O)N[C@@H](CO)C(=O)N[C@@H](CCCNC(=N)N)C(=O)N[C@@H](CCC(=O)O)C(=O)N1CCC[C@H]1C(=O)N[C@@H](CCCNC(=N)N)C(=O)N[C@@H](CCCNC(=N)N)C(=O)N[C@@H](CCCCN)C(=O)N[C@@H](C)C(=O)N[C@@H](CC(N)=O)C(=O)N[C@@H](CSC1CC(=O)N(c2ccc(-c3c4ccc(=[N+](C)C)cc-4oc4cc(N(C)C)ccc34)c(C(=O)[O-])c2)C1=O)C(=O)N[C@@H](CCCCN)C(=O)N[C@@H](CO)C(=O)N[C@@H](CO)C(=O)N1CCC[C@H]1C(=O)N[C@@H](CO)C(=O)N1CCC[C@H]1C(=O)N[C@@H](CCCCN)C(=O)N[C@@H](CCCCN)C(=O)NCC(=O)N[C@@H](CCCCN)C(=O)N[C@@H](CCCCN)C(=O)N[C@@H](CCCNC(=N)N)C(=O)N[C@@H](CCCCN)C(=O)N[C@@H](CCCCN)C(=O)NCC(=O)NCC(=O)O", "note": "(stereo partly shown) [TAMRA-BsPBP11-32 Ala10Pro] (H-GSMADQFNSREPRRKANC(X1)KSSPSPKKGKKRKKGG-OH)", "values": [
      {"measurement": "reduction in affinity for BsGpsB1-68", "setting": "BsGpsB1-68; listed as BsPBP1_1-32^Ala10Pro", "value": "at least 6 fold"},
      {"measurement": "reduction in affinity for BsGpsB1-68", "setting": "BsGpsB1-68; listed as BsPBP11-32Ala10Pro", "value": "> 8", "unit": "fold"},
      {"measurement": "helical residues corresponding to helical content", "setting": "[1]; CD, 222 nm, 4 °C, 20 mM sodium phosphate pH 7.3, 25 μM peptide", "value": "one"},
      {"measurement": "α-helical content", "setting": "[1]; CD, 222 nm, 4 °C, 20 mM sodium phosphate pH 7.3, 25 μM peptide, average of at least four measurements", "value": 2, "unit": "%"},
      {"measurement": "secondary structure by CD (in words)", "setting": "[1]; LmPBPA1 peptides 40 μM, 20 mM sodium phosphate pH 7.8, TFE 0-80% (5 mM phosphate at 80%), BsPBP1_1-32 peptides 25 μM, pH 7.3, 4 °C", "value": "mostly random coil"}
    ]},
    {"molecule": "B1", "values": [
      {"measurement": "BACTH interaction with LmGpsB", "setting": "LmGpsB", "value": "turned blue after one day of incubation"}
    ]},
    {"molecule": "B2", "values": [
      {"measurement": "BACTH interaction with LmGpsB", "setting": "LmGpsB", "value": "turned blue after one day of incubation"}
    ]},
    {"molecule": "B3", "values": [
      {"measurement": "BACTH interaction with LmGpsB", "setting": "LmGpsB", "value": "turned blue after one day of incubation; also recorded: turned blue after 2 days incubation"}
    ]},
    {"molecule": "B4", "values": [
      {"measurement": "BACTH interaction with LmGpsB", "setting": "LmGpsB", "value": "turned blue after 2 days incubation"}
    ]}
  ]
}
